Experimental data reported in ChEMBL document CHEMBL3045835, “Comparative study of conventional and microwave-assisted synthesis of some Schiff bases and their potential as antimicrobial agents” (2012).
Converted amounts (≈) assume the structure as drawn.

Assays:
Assay type in all cases: functional
Micrococcus luteus [1] = experiment: Antibacterial activity against Micrococcus luteus MTCC 1538 at 100 ug/ml after 18 hr by cup-plate method; settings: MTCC 1538, 18 h, read-out: DIZ
Pseudomonas aeruginosa [2] = experiment: Antibacterial activity against Pseudomonas aeruginosa MTCC 424 after 24 hr by broth dilution method; settings: MTCC 424, 24 h
Staphylococcus aureus [3] = experiment: Antibacterial activity against Staphylococcus aureus MTCC 1430 at 100 ug/ml after 18 hr by cup-plate method; settings: MTCC 1430, 18 h, read-out: DIZ
Escherichia coli [4] = experiment: Antibacterial activity against Escherichia coli MTCC 1573 at 100 ug/ml after 18 hr by cup-plate method; settings: MTCC 1573, 18 h, read-out: DIZ
Bacillus subtilis [5] = experiment: Antibacterial activity against Bacillus subtilis MTCC 441 after 24 hr by broth dilution method; settings: MTCC 441, 24 h
Pseudomonas fluorescens [6] = experiment: Antibacterial activity against Pseudomonas fluorescens MTCC 2421 after 24 hr by broth dilution method; settings: MTCC 2421, 24 h
Bacillus pumilus [7] = experiment: Antibacterial activity against Bacillus pumilus MTCC 1456 after 24 hr by broth dilution method; settings: MTCC 1456, 24 h
Pseudomonas fluorescens [8] = experiment: Antibacterial activity against Pseudomonas fluorescens MTCC 2421 at 100 ug/ml after 18 hr by cup-plate method; settings: MTCC 2421, 18 h, read-out: DIZ
Escherichia coli [9] = experiment: Antibacterial activity against Escherichia coli MTCC 1573 after 24 hr by broth dilution method; settings: MTCC 1573, 24 h
Micrococcus luteus [10] = experiment: Antibacterial activity against Micrococcus luteus MTCC 1538 after 24 hr by broth dilution method; settings: MTCC 1538, 24 h
Pseudomonas aeruginosa [11] = experiment: Antibacterial activity against Pseudomonas aeruginosa MTCC 424 at 100 ug/ml after 18 hr by cup-plate method; settings: MTCC 424, 18 h, read-out: DIZ
Staphylococcus aureus [12] = experiment: Antibacterial activity against Staphylococcus aureus MTCC 1430 after 24 hr by broth dilution method; settings: MTCC 1430, 24 h
Bacillus pumilus [13] = experiment: Antibacterial activity against Bacillus pumilus MTCC 1456 at 100 ug/ml after 18 hr by cup-plate method; settings: MTCC 1456, 18 h, read-out: DIZ
Bacillus subtilis [14] = experiment: Antibacterial activity against Bacillus subtilis MTCC 441 at 100 ug/ml after 18 hr by cup plate method; settings: MTCC 441, 18 h, read-out: DIZ
Penicillium chrysogenum [15] = experiment: Antifungal activity against Penicillium chrysogenum MTCC 161 after 24 hr by broth dilution method; settings: MTCC 161, 24 h
Micrococcus luteus [16] = experiment: Antibacterial activity against Micrococcus luteus MTCC 1538 at 1500 ug/ml after 18 hr by cup-plate method; settings: MTCC 1538, 18 h, read-out: DIZ
Pseudomonas fluorescens [17] = experiment: Antibacterial activity against Pseudomonas fluorescens MTCC 2421 at 200 ug/ml after 18 hr by cup-plate method; settings: MTCC 2421, 18 h, read-out: DIZ
Micrococcus luteus [18] = experiment: Antibacterial activity against Micrococcus luteus MTCC 1538 at 500 ug/ml after 18 hr by cup-plate method; settings: MTCC 1538, 18 h, read-out: DIZ
Staphylococcus aureus [19] = experiment: Antibacterial activity against Staphylococcus aureus MTCC 1430 at 1500 ug/ml after 18 hr by cup-plate method; settings: MTCC 1430, 18 h, read-out: DIZ
Micrococcus luteus [20] = experiment: Antibacterial activity against Micrococcus luteus MTCC 1538 at 1000 ug/ml after 18 hr by cup-plate method; settings: MTCC 1538, 18 h, read-out: DIZ
Staphylococcus aureus [21] = experiment: Antibacterial activity against Staphylococcus aureus MTCC 1430 at 1000 ug/ml after 18 hr by cup-plate method; settings: MTCC 1430, 18 h, read-out: DIZ
Staphylococcus aureus [22] = experiment: Antibacterial activity against Staphylococcus aureus MTCC 1430 at 500 ug/ml after 18 hr by cup-plate method; settings: MTCC 1430, 18 h, read-out: DIZ
Pseudomonas aeruginosa [23] = experiment: Antibacterial activity against Pseudomonas aeruginosa MTCC 424 at 1500 ug/ml after 18 hr by cup-plate method; settings: MTCC 424, 18 h, read-out: DIZ
Aspergillus niger [24] = experiment: Antifungal activity against Aspergillus niger MTCC 2546 after 24 hr by broth dilution method; settings: MTCC 2546, 24 h
Escherichia coli [25] = experiment: Antibacterial activity against Escherichia coli MTCC 1573 at 500 ug/ml after 18 hr by cup-plate method; settings: MTCC 1573, 18 h, read-out: DIZ
Penicillium chrysogenum [26] = experiment: Antifungal activity against Penicillium chrysogenum MTCC 161 at 1000 ug/ml after 18 hr by cup-plate method; settings: MTCC 161, 18 h, read-out: DIZ
Escherichia coli [27] = experiment: Antibacterial activity against Escherichia coli MTCC 1573 at 1000 ug/ml after 18 hr by cup-plate method; settings: MTCC 1573, 18 h, read-out: DIZ
Micrococcus luteus [28] = experiment: Antibacterial activity against Micrococcus luteus MTCC 1538 at 200 ug/ml after 18 hr by cup-plate method; settings: MTCC 1538, 18 h, read-out: DIZ
Aspergillus niger [29] = experiment: Antifungal activity against Aspergillus niger MTCC 2546 at 1500 ug/ml after 18 hr by cup-plate method; settings: MTCC 2546, 18 h, read-out: DIZ
Penicillium chrysogenum [30] = experiment: Antifungal activity against Penicillium chrysogenum MTCC 161 at 500 ug/ml after 18 hr by cup-plate method; settings: MTCC 161, 18 h, read-out: DIZ
Staphylococcus aureus [31] = experiment: Antibacterial activity against Staphylococcus aureus MTCC 1430 at 200 ug/ml after 18 hr by cup-plate method; settings: MTCC 1430, 18 h, read-out: DIZ
Aspergillus niger [32] = experiment: Antifungal activity against Aspergillus niger MTCC 2546 at 500 ug/ml after 18 hr by cup-plate method; settings: MTCC 2546, 18 h, read-out: DIZ
Pseudomonas fluorescens [33] = experiment: Antibacterial activity against Pseudomonas fluorescens MTCC 2421 at 1000 ug/ml after 18 hr by cup-plate method; settings: MTCC 2421, 18 h, read-out: DIZ
Escherichia coli [34] = experiment: Antibacterial activity against Escherichia coli MTCC 1573 at 1500 ug/ml after 18 hr by cup-plate method; settings: MTCC 1573, 18 h, read-out: DIZ
Pseudomonas fluorescens [35] = experiment: Antibacterial activity against Pseudomonas fluorescens MTCC 2421 at 500 ug/ml after 18 hr by cup-plate method; settings: MTCC 2421, 18 h, read-out: DIZ
Pseudomonas fluorescens [36] = experiment: Antibacterial activity against Pseudomonas fluorescens MTCC 2421 at 1500 ug/ml after 18 hr by cup-plate method; settings: MTCC 2421, 18 h, read-out: DIZ
Aspergillus niger [37] = experiment: Antifungal activity against Aspergillus niger MTCC 2546 at 1000 ug/ml after 18 hr by cup-plate method; settings: MTCC 2546, 18 h, read-out: DIZ
Penicillium chrysogenum [38] = experiment: Antifungal activity against Penicillium chrysogenum MTCC 161 at 1500 ug/ml after 18 hr by cup-plate method; settings: MTCC 161, 18 h, read-out: DIZ
Aspergillus niger [39] = experiment: Antifungal activity against Aspergillus niger MTCC 2546 at 100 ug/ml after 18 hr by cup-plate method; settings: MTCC 2546, 18 h, read-out: DIZ
Penicillium chrysogenum [40] = experiment: Antifungal activity against Penicillium chrysogenum MTCC 161 at 100 ug/ml after 18 hr by cup-plate method; settings: MTCC 161, 18 h, read-out: DIZ

Work on `CCn1cc(C(=O)O)c(=O)c2cc(F)c(N3CCNCC3)cc21` [NORFLOXACIN] yielded a zone of inhibition at 100 µg/mL (Micrococcus luteus [1]) of 26 mm, an MIC (Pseudomonas aeruginosa [2]) of 50 µg/mL (≈ 157 µM) and a zone of inhibition at 100 µg/mL (Staphylococcus aureus [3]) of 25 mm. For the same compound, the zone of inhibition at 100 µg/mL (Escherichia coli [4]) was 36 mm, the MIC (Bacillus subtilis [5]) was 50 µg/mL (≈ 157 µM) and the MIC (Pseudomonas fluorescens [6]) was 50 µg/mL (≈ 157 µM). For the same compound, the MIC (Bacillus pumilus [7]) was 50 µg/mL (≈ 157 µM), the zone of inhibition at 100 µg/mL (Pseudomonas fluorescens [8]) was 25 mm and the MIC (Escherichia coli [9]) was 50 µg/mL (≈ 157 µM). It also gave an MIC (Micrococcus luteus [10]) of 50 µg/mL (≈ 157 µM), a zone of inhibition at 100 µg/mL (Pseudomonas aeruginosa [11]) of 28 mm and an MIC (Staphylococcus aureus [12]) of 50 µg/mL (≈ 157 µM). It also gave a zone of inhibition at 100 µg/mL (Bacillus pumilus [13]) of 28 mm and a zone of inhibition at 100 µg/mL (Bacillus subtilis [14]) of 23 mm.
`C(=N\c1ccccn1)/c1cccc2ccccc12` showed an MIC (Penicillium chrysogenum [15]) of 500 µg/mL (≈ 2150 µM), a zone of inhibition at 1500 µg/mL (Micrococcus luteus [16]) of 24 mm and a zone of inhibition at 200 µg/mL (Pseudomonas fluorescens [17]) of 13 mm. It also gave a zone of inhibition at 100 µg/mL (Micrococcus luteus [1]) of 11 mm, a zone of inhibition at 500 µg/mL (Micrococcus luteus [18]) of 17 mm and an MIC (Pseudomonas aeruginosa [2]) of 500 µg/mL (≈ 2150 µM). For the same compound, the zone of inhibition at 1500 µg/mL (Staphylococcus aureus [19]) was 20 mm, the zone of inhibition at 100 µg/mL (Staphylococcus aureus [3]) was 11 mm and the zone of inhibition at 1000 µg/mL (Micrococcus luteus [20]) was 20 mm. The MIC (Bacillus subtilis [5]) was 500 µg/mL (≈ 2150 µM), the MIC (Pseudomonas fluorescens [6]) was 300 µg/mL (≈ 1290 µM) and the MIC (Bacillus pumilus [7]) was 500 µg/mL (≈ 2150 µM). The zone of inhibition at 1000 µg/mL (Staphylococcus aureus [21]) was 16 mm, the zone of inhibition at 500 µg/mL (Staphylococcus aureus [22]) was 14 mm and the zone of inhibition at 1500 µg/mL (Pseudomonas aeruginosa [23]) was 15 mm. The MIC (Aspergillus niger [24]) was 500 µg/mL (≈ 2150 µM), the zone of inhibition at 500 µg/mL (Escherichia coli [25]) was 11 mm and the zone of inhibition at 1000 µg/mL (Penicillium chrysogenum [26]) was 12 mm. It also gave a zone of inhibition at 1000 µg/mL (Escherichia coli [27]) of 14 mm, a zone of inhibition at 200 µg/mL (Micrococcus luteus [28]) of 12 mm and a zone of inhibition at 100 µg/mL (Pseudomonas fluorescens [8]) of 11 mm. It also gave a zone of inhibition at 1500 µg/mL (Aspergillus niger [29]) of 15 mm, an MIC (Escherichia coli [9]) of 400 µg/mL (≈ 1720 µM) and an MIC (Micrococcus luteus [10]) of 400 µg/mL (≈ 1720 µM). For the same compound, the zone of inhibition at 500 µg/mL (Penicillium chrysogenum [30]) was 10 mm, the zone of inhibition at 200 µg/mL (Staphylococcus aureus [31]) was 12 mm and the MIC (Staphylococcus aureus [12]) was 400 µg/mL (≈ 1720 µM). For the same compound, the zone of inhibition at 500 µg/mL (Aspergillus niger [32]) was 12 mm, the zone of inhibition at 1000 µg/mL (Pseudomonas fluorescens [33]) was 17 mm and the zone of inhibition at 1500 µg/mL (Escherichia coli [34]) was 16 mm. For the same compound, the zone of inhibition at 500 µg/mL (Pseudomonas fluorescens [35]) was 15 mm, the zone of inhibition at 1500 µg/mL (Pseudomonas fluorescens [36]) was 19 mm and the zone of inhibition at 1000 µg/mL (Aspergillus niger [37]) was 13 mm. It also gave a zone of inhibition at 1500 µg/mL (Penicillium chrysogenum [38]) of 17 mm.
In the case of `OC(Cn1cncn1)(Cn1cncn1)c1ccc(F)cc1F` [FLUCONAZOLE], the zone of inhibition at 100 µg/mL (Aspergillus niger [39]) is reported as 28 mm and the zone of inhibition at 100 µg/mL (Penicillium chrysogenum [40]) is reported as 16 mm.
